Assay results published in patent US20220030868A1, “FUNGICIDAL HALOMETHYL KETONES AND HYDRATES” (FMC CORPORATION, priority 2018, published 2022).

Assays:
Phakopsora pachyrhizi = assay: Test A: test suspension sprayed on soybean seedlings one day before inoculation with Phakopsora pachyrhizi spores (Asian soybean rust), visual disease rating; format: in vivo; conditions: 100 = 100% disease control, 0 = no control
Method in brief: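 Compound dissolved in acetone (3% of final volume), then suspended at the stated ppm in 50/50 acetone/water with 250 ppm PEG400 surfactant; sprayed to run-off on soybean seedlings, inoculated with P. pachyrhizi spores next day. Held saturated at 22° C for 24 h, then 8 days at 22° C; visual rating as % disease control versus controls.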

[1] = system: Puccinia recondita f. sp. tritici; assay: Test B: test suspension sprayed on wheat seedlings one day before inoculation with Puccinia recondita f. sp. tritici spores (wheat leaf rust), disease rating; format: in vivo; conditions: 100 = 100% disease control, 0 = no control
Method in brief: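 Wheat seedlings were sprayed to run-off with compound suspended in 50/50 acetone/water containing 250 ppm PEG400, then inoculated with P. recondita f. sp. tritici spores the next day. Plants were held 24 h in saturated air at 20 °C, then 6 days in a growth chamber at 20 °C. Disease control was rated 0–100% relative to controls, with some entries run at 50 or 10 ppm.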

SMILES | Test A rating (disease control) (Phakopsora pachyrhizi; 10 ppm test suspension) [%] | Test B rating (disease control) ([1]; 10 ppm test suspension) [%] | also measured
CCO/C(=C\Oc1ccc(C(=O)NC2CC2)cc1)C(F)(F)F [compound 100] | 0 | 0 | 
CCO/C(=C\Oc1ccc(Cn2ccc(C(=O)OCC(C)=O)n2)cc1)C(F)(F)F [compound 359] | 100 | 0 | 
CCO/C(=C\Oc1ccc(CNS(=O)(=O)CC)cc1)C(F)(F)F [compound 149] | 0 | 0 | 
CCCO/C(=C\Oc1ccc(Cn2cc(C(=O)OCC)cn2)cc1)C(F)(F)F [compound 65] | 100 | 0 | 
C=CCOC(=O)c1cnn(Cc2cccc(O/C=C(\OCC)C(F)(F)F)c2)c1 [compound 333] | 100 | 0 | 
O=C(OCC(F)(F)F)c1cnn(Cc2ccc(OCC(O)(O)C(F)(F)F)cc2)c1 [Compound 45] | 87 | 85 | 
C#CCOC(=O)c1cnn(Cc2cccc(O/C=C(\OCC)C(F)(F)F)c2)c1 [compound 336] | 100 | 0 | 
CCOC(=O)c1cnn(C(C)c2cccc(O/C=C(\OCC)C(F)(F)F)c2)c1 (stereo not drawn) [compound 304] |  |  | Test A rating (disease control) (Phakopsora pachyrhizi; 50 ppm test suspension): 96%; Test B rating (disease control) ([1]; 50 ppm test suspension): 0%
CCOC(=O)c1cnn(C(C)c2ccc(OCC3(C(F)(F)F)OCCO3)cc2)c1 (stereo not drawn) [compound 26] | 99 | 0 | 
CCO/C(=C\Oc1cccc(Cn2cc(C(=O)OCC(C)C)cn2)c1)C(F)(F)F [compound 334] | 100 | 0 | 
C#CCOC(=O)c1cnn(Cc2ccc(OCC3(C(F)(F)F)OCCO3)cc2)c1 [compound 15] | 100 | 0 | 
CCOC(=O)c1cn(Cc2ccc(O/C=C(\OCC)C(F)(F)F)cc2)cn1 [compound 153] | 100 | 0 | 
CS(=O)(=O)c1ccc(OCC2(C(F)(F)F)OCCO2)cc1 [compound 24] | 81 | 91 | 
CCO/C(=C\Oc1ccc(Cc2ccnc(S(C)(=O)=O)n2)cc1)C(F)(F)F [compound 307] |  |  | Test A rating (disease control) (Phakopsora pachyrhizi; 50 ppm test suspension): 0%; Test B rating (disease control) ([1]; 50 ppm test suspension): 0%
FC(F)(F)C1(COc2ccc(CNC(=S)NC3CCCCC3)cc2)OCCO1 [compound 77] | 0 | 0 | 
O=C(OCC1CCC1)c1cnn(Cc2ccc(OCC3(C(F)(F)F)OCCO3)cc2)c1 [compound 249] | 100 | 0 | 
CCO/C(=C\Oc1ccc(Cc2ncc(C(=O)NCC3CC3)o2)cc1)C(F)(F)F [compound 258] | 96 | 0 | 
C=C(C)COC(=O)c1cnn(Cc2ccc(OCC3(C(F)(F)F)OCCO3)cc2)c1 [compound 228] | 100 | 0 | 
O=C(CC(F)(F)F)NCc1ccc(OCC2(C(F)(F)F)OCCO2)cc1 [compound 212] | 44 | 0 | 
O=C(NCC1CC1)c1cnn(Cc2ccc(OCC(O)(O)C(F)(F)F)cc2)c1 [Compound 36] | 70 | 0 | 
N#Cc1cccc(OCC2(C(F)(F)F)OCCO2)c1 [compound 147] |  |  | pest or weed control at 50 ppm (Phakopsora pachyrhizi; Phakopsora pachyrhizi, 50 ppm test suspension): 77%; pest or weed control at 50 ppm ([1]; 50 ppm test suspension): 0%
O=C(NCC(F)(F)F)c1csc(Cc2ccc(OCC3(C(F)(F)F)OCCO3)cc2)n1 [Compound 70] |  |  | Test A rating (disease control) (Phakopsora pachyrhizi; 250 ppm test suspension): 100%; Test B rating (disease control) ([1]; 250 ppm test suspension): 100%
O=C(OCC1CCCC1)c1cnn(Cc2ccc(OCC3(C(F)(F)F)OCCO3)cc2)c1 [compound 284] | 100 | 0 | 
CCNC(=O)OCc1ccc(O/C=C(\OCC)C(F)(F)F)cc1 [compound 196] | 0 | 74 | 
